In patent publication US7579338B2, “Methods and compositions for treating atheroma, tumors and other neoplastic tissues” (Pharmacyclics, Inc., priority 1999, dated 2009):

Key:
[1] = Oxidation of ascorbate under approximate physiologic conditions (UV-vis, 266 nm); format: biochemical
Experimental: • Stock ascorbic acid (Sigma A 5960) (prepared fresh): 8.82 mg/(25 mL 176.1 mg/mmol)=2.00 mM • Stock GdTex: 5.72 mg/(10.0 mL water. 1148 mg/mmol)=498 μM • Stock 4× Buffer: 200 mM HEPES, pH 7.5; 400 mM NaCl The stock solutions were prepared using ACS grade water (Aldrich 32,007-2). 4× buffer was prepared using NaCl 99.999% (Aldrich 20,443-9), HEPES (Gibco-BRL 11344-025), and sodium hydroxide 99.99% (Aldrich 30,657-6), and was treated with Chelex® 100 (BioRad 143-2832) prior to use to remove trace iron contaminants. These were combined to form the reaction mixture analyzed by UV-vis spectroscopy: 400 μL 4× Buffer, 200 μL Ascorbic Acid Stock, 979.9 μL Water, 20.1 μL GdTex Stock.
In brief, a reaction mixture was prepared containing ascorbate, buffer, and water. A lesser amount of texaphyrin catalyst, eg., 0.025 molar equivalent, was added to this reaction mixture, vortexed briefly, and placed in a quartz cuvette (0.2, 0.5, 1.0, 2.0, 5.0, or 10 mm path length as needed to give ca. 1.8 absorbance reading at 266 nm). The cuvette was placed in a UV-vis spectrophotometer and the absorbance was read every 60 seconds for ten minutes. The absorbance at 266 nm plotted against time initially gaive a straight line. The slope of initial time points (eg., plotting as M concentration vs time in minutes) provided a rate which was used as a point in a saturation (Michaelis-Menton) plot. This process was repeated at various concentrations of ascorbate. A background rate of ascorbate oxidation was also measured at each concentration of ascorbate using this procedure without GdTex catalyst. The resulting background rate of oxidation was subtracted from the rate of oxidation in the presence of catalyst.
2B. […] 2C. […] 2D. By following the procedure of Example 2A, using an initial ascorbate concentration of 1.23 mM and a texaphyrin concentration of 61.5 μM, the results summarized in below in Table 1 were obtained.

[2] = test system: EMT-6 mouse mammary sarcoma cells; assay: Proliferation of EMT-6 cells with NADPH and texaphyrin (MTT); format: cell-based; conditions: for inhibitory effect of texaphyrin with 1000 μM and 333 μM NADPH: NADPH 1000 μM and 333 μM; for inhibitory effect of texaphyrin at lower concentrations of NADPH: NADPH below 333 μM; for inhibitory effect of texaphyrin in the absence of NADPH: no NADPH
Experimental: 5A. Materials and Methods. MES-SA cells were allowed to adhere to (4) 96-well microtiter plates (4000 cells per well) overnight in 160 μL RPMI medium. Stock ascorbate 3.0 mM in medium (80 μL) was serially diluted (1:3) in rows B through F (discarding the final 80 μL). Row G was used for no-ascorbate control. Stock solutions of GdTex (2 mM in 5% mannitol) diluted in medium and 5% mannitol were prepared and added to the plates to give a final volume of 200 μL in all wells. Columns 2 and 3 contained 100 μM GdTex; columns 4 and 5 contained 75 μM GdTex, columns 6 and 7 contained 50 μM GdTex; columns 8 and 9 contained 25 μM GdTex; and columns 10 and 11 contained no GdTex (all concentrations final). Final mannitol concentration was 0.25% in all wells. The plates were incubated at 37 C under a 5% CO2/95% air atmosphere. Complex-containing medium was exchanged for fresh medium after 5 hours, and plates were incubated an additional 72 hours prior to analysis for viability using the tetrazolium dye, MTT (Mosmann, T. J. Immunol. Methods 1983, 65, 55-63). In brief, 20 μL MTT dye (Sigma Chemical, St. Louis, Mo., catalogue no. M 2128, 5 mg/mL solution in phosphate buffered saline) was added to cells in media to give a final volume of 200 μL. The plates were incubated at 37° C. for ca. 2 hours, whereupon the media was removed and isopropyl alcohol (100 μL/well) was added. Plates were vortexed for ca. 3 minutes to dissolve MTT formazan, then read on a microplate reader at 560-650 nm. Plate absorbances were normalized to wells containing neither ascorbate nor GdTex to allow plate to plate comparison. Data for each concentration of GdTex and ascorbate is the average of eight wells.
(§1) The proliferation of EMT-6 mouse mammary sarcoma (Rockwell, S. C., et al., J. Natl. Cancer Inst. 1972, 49, 735-749) cells grown in RPMI-1640 medium in the presence of NADPH and motexafin lutetium was used to assess the production of hydrogen peroxide under cell culture conditions following the protocol outlined in the previous example.
as §1, with “GdTex” for “motexafin lutetium”

MES-SA cells = assay: Response of MES-SA cells to ionizing radiation, microtiter plate format (MTT); format: cell-based, human
Experimental: The response of MES-SA cells to ionizing radiation was studied using the microtiter plate format to confirm radiation sensitization potential. This assay is used to assess rapidly the effects of irradiation under a variety of conditions.
10A. Materials and Methods. MES-SA cells were incubated at 37° C. and allowed to adhere to 96-well microtiter plates (1000 cells per well) overnight in 160 μL McCoys 5A containing 10% FBS (Gibco-BRL) and ca. 2% penicillin/streptomycin solution (Sigma). BSO or media (20 μL) was added, respectively to test and control wells, 24 h prior to irradiation. Metallotexaphyrin complex (up to 100 μM) was added to the test wells to give a final volume of 200 μL, 18-24 h prior to irradiation. Plates were irradiated using a 137Cs irradiator (Model 40 Gammacell, J. L. Shepherd & Assoc., San Fernando, Calif.) at a dose rate of 33.25 Rad/min. A lead brick (2″ diameter) was positioned to protect a column of wells (no. 11) from ionizing radiation. Plate absorbances were normalized to shielded wells to allow plate-to-plate comparison. […] Reversing the position of texaphyrin complex-containing wells had no effect on assay outcome. Medium was exchanged immediately after irradiation, and plates were incubated an additional 120 h prior to analysis for viability using the MTT assay (as described, e.g., in Example 5).

animal tumor models = conditions: reported in the literature; cited from earlier work

Compound | kcat (first-order rate constant for the catalyst), ascorbate oxidation ([1]; substrate ascorbate, pH 7.5, background subtracted) [s⁻¹] | Km ([1]; substrate ascorbate, pH 7.5, background subtracted, read-out: KM (dissociation or Michaelis constant), ascorbate oxidation) [µM] | inhibitory effect of texaphyrin with 1000 μM and 333 μM NADPH [2] | inhibitory effect of texaphyrin at lower concentrations of NADPH [2] | inhibitory effect of texaphyrin in the absence of NADPH [2] | radiation sensitization (MES-SA cells; 100 μM GdTex, no BSO (FIG. 17A)) | effect on apparent viability after irradiation with BSO (MES-SA cells; all cells pre-incubated with 100 μM BSO (FIG. 17B)) | effect on apparent viability after irradiation (MES-SA cells; up to 50 μM GdTex for 24 h prior to irradiation, no BSO, adjusted for GdTex alone (FIG. 17A)) | radiation sensitization in animal tumor models (animal tumor models) | ascorbate oxidation (in words) ([1]; procedure of Example 2A, compared with motexafin gadolinium) | radiation sensitization, texaphyrin substituted for GdTex (MES-SA cells; corresponding experiments, Example 10B)
CC(=O)[O-].CC(=O)[O-].CCc1c(CC)c2cc3nc(cnc4cc(OCCOCCOCCOC)c(OCCOCCOCCOC)cc4ncc4nc(cc1[n-]2)C(CCCO)=C4C)C(C)=C3CCCO.O.[Gd+3] [GdTex, motexafin gadolinium] | 0.00583 | 1060 | dose-response was observed | No inhibitory effect | no inhibitory effect | Radiation sensitization became more significant | greater GdTex-dependent decrease in apparent viability | small effect on apparent viability | enhance the efficacy of radiation |  | 
CC(=O)[O-].CC(=O)[O-].CCc1c(CC)c2cc3nc(cnc4cc(OCCOCCOCCOC)c(OCCOCCOCCOC)cc4ncc4nc(cc1[n-]2)C(CCCO)=C4C)C(C)=C3CCCO.O.[Lu+3] [LuTex, motexafin lutetium] |  |  | dose-response was observed | No inhibitory effect | no inhibitory effect |  |  |  | did not possess similar radiation sensitization properties | to a lesser extent than in the presence of motexafin gadolinium | sensitization was not obtained
